# Assay results reported in US11421349B2, “Photoactivatable fibers and fabric media” (KLOX TECHNOLOGIES INC., priority 2014, dated 2022).
# Legend:
# Format in all cases: physicochemical
# [1] = Effect of addition of a lubricant on the fluorescence emission of photoactivatable (doped) fibers; settings: same concentration, lurol oil added, FIG. 5B
# Source text: In the case of low concentrations of chromophore it can slightly red shift, and reduces bleaching time considerably. In higher concentrations of chromophore it red shifts, as well as increase fluorescence. The most effect seems to be around 10 g/L of lurol oil. Initially the fluorescence of Eosin Y doped fibers was 0.01 (FIG. 5A), but with the lurol oil added the fluorescence is boosted to 0.7. A comparison was done of Eosin Y and Fluorescein at the same concentration with lurol oil added.
# [2] = Qualitative analysis of dental fiber doping (fluorescence under blue lamp)
# Source text: Commercially available dental fibers were dipped into solutions of Eosin […], or 0.1 g/L) for 10 seconds. The fibers were taken out and observed for color, then put under a blue lamp and the fluorescence was observed qualitatively. […] Dental fibers were dipped into solutions of fluorescein (50 […]) for 10 seconds. The fibers were then taken out and observed for color, then put under a blue lamp and the fluorescence was observed qualitatively. […] Dental fibers were dipped into solutions of fluorescein:Eosin […] total chromophore) solution for 10 seconds again. The fibers were then taken out and observed for color, then put under a blue lamp and the fluorescence was observed qualitatively.
# [3] = Effect of addition of a lubricant (lurol oil) on the fluorescence emitted from Eosin Y solution; settings: 320 μL lurol oil added to 2 mL of 109 μg/g Eosin Y in water
# Procedure: The fluorescence of these two solutions was measured to determine if the lurol oil had any effect (FIG. 4).
photo-degradation compared with Eosin Y [1],Compound,"fluorescence observed qualitatively under blue lamp ([2]; commercial dental fibers dipped 10 seconds, 300-100 g/L solutions)","fluorescence observed qualitatively under blue lamp ([2]; dental fibers dipped 10 seconds, 10 g/L solution)","fluorescence observed qualitatively under blue lamp ([2]; dental fibers dipped 10 seconds, 50 g/L solution)",photodegradation of Eosin Y solution with lurol oil [3],shift of the fluorescence of the solution with lurol oil [3],fluorescence of Eosin Y solution with lurol oil versus without ([3]; FIG. 4)
photo-degrades faster,O=C1OC2(c3ccc(O)cc3Oc3cc(O)ccc32)c2ccccc21 [fluorescein],–,–,–,–,–,–
–,"O=C([O-])c1ccccc1-c1c2cc(Br)c(=O)c(Br)c-2oc2c(Br)c([O-])c(Br)cc12.[Na+].[Na+] [Eosin Y, 2′,4′,5′,7′-tetrabromo-fluorescein, dianion]",little fluorescence,significant increase in fluorescence,showed fluorescence,barely photodegraded,red shifted,almost twice as fluorescent
